Reference: patent publication US20230192686A1, “1H-PYRROLO[2,3-B]PYRIDINES AND PREPARATION AND USES THEREOF” (BioSplice Therapeutics, Inc., priority 2021, published 2023)

Target: recombinant DYRK1A kinase (Homo sapiens, UniProt Q13627)
Assay: DYRK1A kinase assay (Ser/Thr 18 peptide Z-lyte FRET)
Format: biochemical
Conditions: DYRK1A kinase activity; 15 μM ATP, 4 μM Ser/Thr peptide 18, one hour at room temperature
Experimental: Representative compounds were screened using the assay procedure for DYRK1A kinase activity as described below.
Each compound was dissolved in DMSO as a 10 mM stock and used to prepare compound source plates. Serial dilution (1:3, 11-point dose-response curves from 10 μM to 0.00016 μM) and compound transfer was performed using the ECHO 550 (Labcyte, Sunnyvale, Calif.) into 1536-well black-walled round bottom plates (Corning).
The DYRK1A kinase assay was run using the Ser/Thr 18 peptide Z-lyte assay kit according to manufacturer's instructions (Life Technologies—a Division of Thermo-Fisher). This is a non-radioactive assay using fluorescence resonance energy transfer (FRET) between coumarin and fluorescein to detect kinase activity which is represented as a ratio of coumarin emission/fluorescein emission.
Briefly, recombinant DYRK1A kinase, ATP and Ser/Thr peptide 18 were prepared in 1× Kinase buffer to final concentrations of 0.25 μg/mL, 15 μM, and 4 μM respectively. The mixture was allowed to incubate with the representative compounds for one hour at room temperature. All reactions were performed in duplicate. Unphosphorylated (“0% Control”) and phosphorylated (“100% control”) forms of Ser/Thr 18 served as control reactions. Additionally, an 11-point dose-response curve of Staurosporine (1 uM top) was run to serve as a positive compound control.
After incubation, Development Reagent A was diluted in Development Buffer then added to the reaction and allowed to further incubate for one hour at room temperature. The plate was read at Ex 400 Em 455 to detect the coumarin signal and Ex 400 Em 520 to measure the signal (EnVision Multilabel Plate Reader, PerkinElmer).
The Emission ratio (Em) was calculated as a ratio of the coumarin (C) emission signal (at 445 nm)/Fluorescein (F) emission signal (at 520 nm). The percent phosphorylation was then calculated using the following formula: [1−((Em ratio×F100%)−C100%)/((C0%−C100%)+(Em ratio×(F100%−F0%)))]. Dose-response curves were generated, and inhibitory concentration (IC50) values were calculated using non-linear regression curve fit in the Dotmatics' Studies Software (Bishops Stortford, UK).

Structure (SMILES) | EC50
O=C(c1cnn2ccc(-c3c[nH]c4ncccc34)cc12)N1CCCCC1 [Compound 53, (5-(1H-Pyrrolo[2,3-b]pyridin-3-yl)pyrazolo[1,5-a]pyridin-3-yl) (piperidin-1-yl)methanone] | 7 nM
Cc1nc2c(F)cc(-c3c[nH]c4nc(CO)ccc34)cc2n1C(C)C [Compound 1795, (3-(4-Fluoro-1-isopropyl-2-methyl-1H-benzo[d]imidazol-6-yl)-1H-pyrrolo[2,3-b]pyridin-6-yl)methanol] | 8 nM
c1cnc2[nH]cc(-c3ccc4c(c3)CCCO4)c2c1 [Compound 79, 3-(Chroman-6-yl)-1H-pyrrolo[2,3-b]pyridine] | 24 nM
CC1(C)NC(=O)c2cc(-c3c[nH]c4ncccc34)nn21 [Compound 9, 6,6-Dimethyl-2-(1H-pyrrolo[2,3-b]pyridin-3-yl)-5,6-dihydro-4H-imidazo[1,5-b]pyrazol-4-one] | 19 nM
Cc1nc2c(F)cc(-c3c[nH]c4nc(NC(=O)C5CCN(C)CC5)ccc34)cc2n1C(C)C [Compound 1837, N-(3-(4-Fluoro-1-isopropyl-2-methyl-1H-benzo[d]imidazol-6-yl)-1H-pyrrolo[2,3-b]pyridin-6-yl)-1-methylpiperidine-4-carboxamide] | 1 nM
CN1CCN(C(=O)c2cnn3ccc(-c4c[nH]c5ncc(C(F)(F)F)cc45)cc23)CC1 [Compound 2050, (4-Methylpiperazin-1-yl)(5-(5-(trifluoromethyl)-1H-pyrrolo[2,3-b]pyridin-3-yl)pyrazolo[1,5-a]pyridin-3-yl)methanone] | 159 nM
CN1CCN(c2ccc(-c3cnc4[nH]cc(-c5ccc6ncccc6c5)c4c3)cn2)CC1 [Compound 1362, 6-(5-(6-(4-Methylpiperazin-1-yl)pyridin-3-yl)-1H-pyrrolo[2,3-b]pyridin-3-yl)quinoline] | 1 nM
CN1CCC(Oc2ncnc3ccc(-c4c[nH]c5ncccc45)cc23)CC1 [Compound 99, 4-((1-Methylpiperidin-4-yl)oxy)-6-(1H-pyrrolo[2,3-b]pyridin-3-yl) quinazoline] | 2 nM
CN1CCC(C(=O)Nc2ccc3c(-c4ccc5c(c4)C(C)(C)CNC5=O)c[nH]c3n2)CC1 [Compound 1863, N-(3-(4,4-Dimethyl-1-oxo-1,2,3,4-tetrahydroisoquinolin-6-yl)-1H-pyrrolo[2,3-b]pyridin-6-yl)-1-methylpiperidine-4-carboxamide] | 5 nM
CN1CCN(C(=O)c2cnn3ccc(-c4c[nH]c5nc(C6CC6)ccc45)cc23)CC1 [Compound 1517, (5-(6-Cyclopropyl-1H-pyrrolo[2,3-b]pyridin-3-yl)pyrazolo[1,5-a]pyridin-3-yl)(4-methylpiperazin-1-yl)methanone] | 66 nM
CN1CCC(Nc2cncc(-c3c[nH]c4ncccc34)n2)CC1 [Compound 70, N-(1-Methylpiperidin-4-yl)-6-(1H-pyrrolo[2,3-b]pyridin-3-yl)pyrazin-2-amine] | 13 nM
CN1CCC(NC(=O)c2cnn3ccc(-c4c[nH]c5ncc(-c6cccnc6)cc45)cc23)CC1 [Compound 1178, N-(1-Methylpiperidin-4-yl)-5-(5-(pyridin-3-yl)-1H-pyrrolo[2,3-b]pyridin-3-yl)pyrazolo[1,5-a]pyridine-3-carboxamide] | 6 nM
Cc1nc2c(F)cc(-c3c[nH]c4ncc(-c5cccnc5)cc34)cc2n1C1CCN(C)CC1 [Compound 1166, 4-Fluoro-2-methyl-1-(1-methylpiperidin-4-yl)-6-(5-(pyridin-3-yl)-1H-pyrrolo[2,3-b]pyridin-3-yl)-1H-benzo[d]imidazole] | 3 nM
CN1CCN(C(=O)c2cnc3cnc(-c4c[nH]c5ncccc45)cn23)CC1 [Compound 21, (6-(1H-Pyrrolo[2,3-b]pyridin-3-yl)imidazo[1,2-a]pyrazin-3-yl)(4-methylpiperazin-1-yl)methanone] | 16 nM
CN1CCN(C(=O)c2cnn3ccc(-c4c[nH]c5ncc(F)cc45)cc23)CC1 [Compound 257, (5-(5-Fluoro-1H-pyrrolo[2,3-b]pyridin-3-yl)pyrazolo[1,5-a]pyridin-3-yl)(4-methylpiperazin-1-yl)methanone] | 16 nM
Cc1ccnc(C)c1-c1cnc2[nH]cc(-c3cc(F)c4nc(C)n(C(C)C)c4c3)c2c1 [Compound 1291, 6-(5-(2,4-Dimethylpyridin-3-yl)-1H-pyrrolo[2,3-b]pyridin-3-yl)-4-fluoro-1-isopropyl-2-methyl-1H-benzo[d]imidazole] | 7 nM
CCOc1ccc2c(-c3ccc4ncnn4c3)c[nH]c2n1 [Compound 1757, 6-(6-Ethoxy-1H-pyrrolo[2,3-b]pyridin-3-yl)-[1,2,4]triazolo[1,5-a] pyridine] | 144 nM

Structure (SMILES) | EC50
Cc1nc2c(F)cc(-c3c[nH]c4ncc(-c5cnn6c5CN(C)CC6)cc34)cc2n1C(C)C [Compound 1123, 3-(3-(4-Fluoro-1-isopropyl-2-methyl-1H-benzo[d]imidazol-6-yl)-1H-pyrrolo[2,3-b]pyridin-5-yl)-5-methyl-4,5,6,7-tetrahydropyrazolo[1,5-a]pyrazine] | 4 nM
CN1CCN(c2ncnc3ccc(-c4c[nH]c5ncccc45)cc23)CC1 [Compound 95, 4-(4-Methylpiperazin-1-yl)-6-(1H-pyrrolo[2,3-b]pyridin-3-yl) quinazoline] | 2 nM
c1cnc2ccc(-c3c[nH]c4ncccc34)cc2c1 [Compound 87, 6-(1H-Pyrrolo[2,3-b]pyridin-3-yl)quinoline] | 2 nM
CN1CCN(c2ccc(CNc3ncnc4ccc(-c5c[nH]c6ncccc56)cc34)cn2)CC1 [Compound 104, N-((6-(4-Methylpiperazin-1-yl)pyridin-3-yl)methyl)-6-(1H-pyrrolo[2,3-b]pyridin-3-yl)quinazolin-4-amine] | 11 nM
c1cn2cc(-c3c[nH]c4nc(C5CC5)ccc34)cnc2n1 [Compound 1500, 6-(6-Cyclopropyl-1H-pyrrolo[2,3-b]pyridin-3-yl)imidazo[1,2-a] pyrimidine] | 5 nM
c1cn2cc(-c3c[nH]c4nc(C5CCC5)ccc34)ncc2n1 [Compound 2042, 6-(6-Cyclobutyl-1H-pyrrolo[2,3-b]pyridin-3-yl)imidazo[1,2-a]pyrazine] | 345 nM
O=C1NCCOc2c1ccc(-c1c[nH]c3ncccc13)c2F [Compound 86, 9-Fluoro-8-(1H-pyrrolo[2,3-b]pyridin-3-yl)-3,4-dihydrobenzo[f] [1,4]oxazepin-5(2H)-one] | 7 nM
c1cnc2ccc(-c3c[nH]c4nc(OCC5CC5)ccc34)cc2c1 [Compound 2053, 6-(6-(Cyclopropylmethoxy)-1H-pyrrolo[2,3-b]pyridin-3-yl)quinoline] | 76 nM
CN(CC(F)F)C(=O)c1cnc2ccc(-c3c[nH]c4nc(C5CC5)ccc34)cn12 [Compound 2056, 6-(6-cyclopropyl-1H-pyrrolo[2,3-b]pyridin-3-yl)-N-(2,2-difluoroethyl)-N-methylimidazo[1,2-a]pyridine-3-carboxamide] | 5 nM
Cn1cc(-c2ccnc3[nH]cc(-c4ccc5ncccc5c4)c23)cn1 [Compound 186, 6-(4-(1-methyl-1H-pyrazol-4-yl)-1H-pyrrolo[2,3-b]pyridin-3-yl) quinoline] | 10 nM
O=C1NCCn2cc(-c3c[nH]c4ncccc34)cc21 [Compound 10, 7-(1H-Pyrrolo[2,3-b]pyridin-3-yl)-3,4-dihydropyrrolo[1,2-a]pyrazin-1(2H)-one] | 14 nM
O=C1NC2(CCCCC2)c2cc(-c3c[nH]c4ncccc34)ccc21 [Compound 78, 6′-(1H-Pyrrolo[2,3-b]pyridin-3-yl)spiro[cyclohexane-1,1′-isoindolin]-3′-one] | 6 nM
CN1CC[C@@H](NC(=O)c2cnn3ccc(-c4c[nH]c5ncccc45)cc23)[C@H](F)C1 [Compound 44, N-((3R,4R)-3-Fluoro-1-methylpiperidin-4-yl)-5-(1H-pyrrolo[2,3-b]pyridin-3-yl)pyrazolo[1,5-a]pyridine-3-carboxamide] | 1 nM
Cc1cn2c(n1)CN(C(=O)c1cnc3[nH]cc(-c4cc5n(c4)CCNC5=O)c3c1)CC2 [Compound 573, 7-(5-(2-Methyl-5,6,7,8-tetrahydroimidazo[1,2-a]pyrazine-7-carbonyl)-1H-pyrrolo[2,3-b]pyridin-3-yl)-3,4-dihydropyrrolo[1,2-a]pyrazin-1(2H)-one] | 10 nM
Cc1cnc2ccc(-c3c[nH]c4ncccc34)nn12 [Compound 34, 3-Methyl-6-(1H-pyrrolo[2,3-b]pyridin-3-yl)imidazo[1,2-b]pyridazine] | 2 nM
CN1CCN(c2ccc(NC(=O)c3cnc4[nH]cc(-c5ccn6ncnc6c5)c4c3)cn2)CC1 [Compound 792, 3-([1,2,4]Triazolo[1,5-a]pyridin-7-yl)-N-(6-(4-methylpiperazin-1-yl)pyridin-3-yl)-1H-pyrrolo[2,3-b]pyridine-5-carboxamide] | 10 nM
